Data taken from ChEMBL document CHEMBL6121007, “Design, synthesis and evaluation of pyrimidine derivatives as sedative-hypnotic agents” (Eur J Med Chem, 2025).
Active and inactive are the calls of the source. The rule behind the calls is not given here.

Tests used:
[1] = Ratio of drug concentration in male mouse brain to plasma at 10 mg/kg, ip measured after 4 hrs by LC-MS/MS analysis; type: ADME, organism-based; conditions: brain and plasma, read-out: BPR
[2] = Upregulation of focal adhesion related genes in hypothalamus of mouse at 2.5 mg/kg, ip measured after 30 mins by KEGG enrichment analysis relative to control; type: functional; conditions: 0.5 h
Mus musculus [3] = experiment: Sedative-hypnotic activity in mouse assessed as reduction in grip strength score at 50 mg/kg, ip administrated as single dose and measured after 30 mins by grip strength test; type: functional, organism-based
Mus musculus [4] = experiment: Sedative-hypnotic activity in mouse assessed as decrease in number of square crossing at 2.5 mg/kg, ip administrated as single dose and measured within 3 mins by open field test; type: functional, organism-based
[5] = Tmax in male Sprague-Dawley rat at 0.5 mg/kg, iv measured after 2 to 720 mins by LC-MS/MS analysis; type: ADME, organism-based; conditions: in vivo, time 2-720 min
[6] = Upregulation of proteoglycans in cancer related genes in hypothalamus of mouse at 2.5 mg/kg, ip measured after 30 mins by KEGG enrichment analysis relative to control; type: functional; conditions: 0.5 h
[7] = Upregulation of kaposi sarcoma-associated herpesvirus infection related genes in hypothalamus of mouse at 2.5 mg/kg, ip measured after 30 mins by KEGG enrichment analysis relative to control; type: functional; conditions: 0.5 h
[8] = Apparent volume of distribution in male Sprague-Dawley rat at 0.5 mg/kg, iv measured after 2 to 720 mins by LC-MS/MS analysis; type: ADME, organism-based; conditions: in vivo, time 2-720 min, read-out: Vd(app)
Mus musculus [9] = experiment: Sedative-hypnotic activity in mouse assessed as increase in latency time of first step out of center square at 0.1 to 2.5 mg/kg, ip administrated as single dose and measured after 30 mins by open field test; type: functional, organism-based; conditions: dose 0.1-2.5 mg/kg
[10] = AUC (0 to infinity) in male Sprague-Dawley rat at 2.5 mg/kg, ip measured after 5 to 1440 mins by LC-MS/MS analysis; type: ADME, organism-based; conditions: in vivo, time 5-1440 min
Mus musculus [11] = experiment: Upregulation of parathyroid hormone secretion related genes in hypothalamus of mouse at 2.5 mg/kg, ip measured after 30 mins by KEGG enrichment analysis relative to control; type: functional; conditions: 0.5 h
Mus musculus [12] = experiment: Upregulation of oxytocin signaling pathway related genes in hypothalamus of mouse at 2.5 mg/kg, ip measured after 30 mins by KEGG enrichment analysis relative to control; type: functional; conditions: 0.5 h
Mus musculus [13] = experiment: In vivo activation of cAMP/PKA/CREB signaling pathway in mouse assessed as increase in PKA expression in hypothalamus at 2.5 mg/kg, ip measured after 30 mins by Western blot analysis; type: functional, organism-based
Mus musculus [14] = experiment: Upregulation of purine metabolism related genes in hypothalamus of mouse at 2.5 mg/kg, ip measured after 30 mins by KEGG enrichment analysis relative to control; type: functional; conditions: 0.5 h
[15] = Upregulation of cytokine-cytokine receptor interaction related genes in hypothalamus of mouse at 2.5 mg/kg, ip measured after 30 mins by KEGG enrichment analysis relative to control; type: functional; conditions: 0.5 h
Mus musculus [16] = experiment: Sedative-hypnotic activity in mouse assessed as decrease in number of square crossing at 50 mg/kg, ip administrated as single dose and measured after 30 mins by open field test; type: functional, organism-based
[17] = Upregulation of mTOR signaling pathway related genes in hypothalamus of mouse at 2.5 mg/kg, ip measured after 30 mins by KEGG enrichment analysis relative to control; type: functional; conditions: 0.5 h
[18] = Half life in male Sprague-Dawley rat at 0.5 mg/kg, iv measured after 2 to 720 mins by LC-MS/MS analysis; type: ADME, organism-based; conditions: in vivo, time 2-720 min
Mus musculus [19] = experiment: Upregulation of threonine metabolism related genes in hypothalamus of mouse at 2.5 mg/kg, ip measured after 30 mins by KEGG enrichment analysis relative to control; type: functional; conditions: 0.5 h
Mus musculus [20] = experiment: Upregulation of circadian entrainment related genes in hypothalamus of mouse at 2.5 mg/kg, ip measured after 30 mins by KEGG enrichment analysis relative to control; type: functional; conditions: 0.5 h
[21] = Drug concentration in male mouse brain at 10 mg/kg, ip measured after 4 hrs by LC-MS/MS analysis; type: ADME, organism-based; conditions: read-out: Ct
Mus musculus [22] = experiment: Sedative-hypnotic activity in pentobarbital-induced mouse assessed as decrease in sleep latency at 0.5 to 2.5 mg/kg, ip administrated as single dose; type: functional, organism-based; conditions: dose 0.5-2.5 mg/kg
[23] = Drug concentration in male mouse brain at 10 mg/kg, ip measured after 1 hrs by LC-MS/MS analysis; type: ADME, organism-based; conditions: read-out: Ct
[24] = Drug concentration in male mouse plasma at 10 mg/kg, ip measured after 2 hrs by LC-MS/MS analysis; type: ADME, organism-based
Mus musculus [25] = experiment: Upregulation of neurodegeneration-multiple diseases pathways related genes in hypothalamus of mouse at 2.5 mg/kg, ip measured after 30 mins by KEGG enrichment analysis relative to control; type: functional; conditions: 0.5 h
Mus musculus [26] = experiment: Upregulation of lipid and atherosclerosis related genes in hypothalamus of mouse at 2.5 mg/kg, ip measured after 30 mins by KEGG enrichment analysis relative to control; type: functional; conditions: 0.5 h
[27] = Clearance in male Sprague-Dawley rat at 2.5 mg/kg, ip measured after 5 to 1440 mins by LC-MS/MS analysis; type: ADME, organism-based; conditions: in vivo, time 5-1440 min
[28] = Tmax in male Sprague-Dawley rat at 2.5 mg/kg, ip measured after 5 to 1440 mins by LC-MS/MS analysis; type: ADME, organism-based; conditions: in vivo, time 5-1440 min
Mus musculus [29] = experiment: Upregulation of signaling pathways regulating pluripotent stem cells related genes in hypothalamus of mouse at 2.5 mg/kg, ip measured after 30 mins by KEGG enrichment analysis relative to control; type: functional; conditions: 0.5 h
Mus musculus [30] = experiment: Upregulation of ubiquitin mediated proteolysis related genes in hypothalamus of mouse at 2.5 mg/kg, ip measured after 30 mins by KEGG enrichment analysis relative to control; type: functional; conditions: 0.5 h
Mus musculus [31] = experiment: Sedative-hypnotic activity in pentobarbital-induced mouse assessed as asleep rate at 0.5 to 2.5 mg/kg, ip preadministered with compound for 20 mins followed by pentobarbital administration and measured within 15 mins (reference value: 12.5 %); type: functional; conditions: dose 0.5-2.5 mg/kg, time <= 35 min
[32] = Upregulation of Ras signaling pathway related genes in hypothalamus of mouse at 2.5 mg/kg, ip measured after 30 mins by KEGG enrichment analysis relative to control; type: functional; conditions: 0.5 h
Mus musculus [33] = experiment: Upregulation of glycerolipid metabolism related genes in hypothalamus of mouse at 2.5 mg/kg, ip measured after 30 mins by KEGG enrichment analysis relative to control; type: functional; conditions: 0.5 h
Mus musculus [34] = experiment: Upregulation of parathyroid hormone action related genes in hypothalamus of mouse at 2.5 mg/kg, ip measured after 30 mins by KEGG enrichment analysis relative to control; type: functional; conditions: 0.5 h
Mus musculus [35] = experiment: Upregulation of amphetamine addiction related genes in hypothalamus of mouse at 2.5 mg/kg, ip measured after 30 mins by KEGG enrichment analysis relative to control; type: functional; conditions: 0.5 h
[36] = MRT (0 to infinity) in male Sprague-Dawley rat at 2.5 mg/kg, ip measured after 5 to 1440 mins by LC-MS/MS analysis; type: ADME, organism-based; conditions: in vivo, time 5-1440 min

Question: Which results are given for `CCn1c2ccccc2c2cc(Nc3ccnc(Nc4ccc(C)c(OC)c4)n3)ccc21`?
Answer: Kp at 4 h [1]: 0.31; Activity [2]: 2.89%; Activity (Mus musculus [3]): Active; Activity (Mus musculus [4]): Active; Tmax [5]: 1.8 min; Activity [6]: 5.2%; Activity [7]: 4.62%; Vd [8]: 2.9 L/kg; Activity (Mus musculus [9]): Active; AUC(0-inf) [10]: 3300 ng·h/mL; Activity (Mus musculus [11]): 4.05%; Activity (Mus musculus [12]): 5.2%; Activity (Mus musculus [13]): Active; Activity (Mus musculus [14]): 1.73%; Activity [15]: 8.09%; Activity (Mus musculus [16]): Active; Activity [17]: 3.47%; half-life [18]: 3.54 h; Activity (Mus musculus [19]): 1.73%; Activity (Mus musculus [20]): 3.47%; concentration at 4 h [21]: 20.2 ng/mL; Activity (Mus musculus [22]): Active; concentration at 1 h [23]: 15 ng/mL; concentration at 2 h [24]: 60.4 ng/mL; Activity (Mus musculus [25]): 5.78%; Activity (Mus musculus [26]): 7.51%; CL/F [27]: 12.7 mL/min/kg; Tmax [28]: 4 h; Activity (Mus musculus [29]): 2.89%; Activity (Mus musculus [30]): 1.73%; Activity (Mus musculus [31]): 100%; Activity [32]: 3.47%; Activity (Mus musculus [33]): 2.31%; Activity (Mus musculus [34]): 4.05%; Activity (Mus musculus [35]): 3.47%; MRT inf [36]: 8.16 h
